System: control human primary myoblasts
Assay: Expression microarray of primary myoblasts transduced with lentivirus carrying DUX4-fl, DUX4-s or GFP
Experimental: Primary human myoblasts were collected and cultured as previously described (Snider et al., 2010). Primary myoblasts were maintained at or below 70% confluency for proliferation. For differentiation, cells were allowed to reach 95-100% confluency in growth medium. Once confluency was reached, the cells were changed to differentiation medium (F10 media supplemented with 1% horse serum, 10 μg/mL insulin, and 10 μg/mL transferrin, penicillin/streptomycin) and maintained for 4 days. Human RD cells were grown in DMEM in 10% bovine calf serum (Hyclone) and penicillin/streptomycin. The primary myoblasts were transduced with lentivirus carrying DUX-fl, DUX4- or GFP (MOI=15).
Expression microarrays were performed on the transduced cells at 24 hours after transduction as follows. […] Samples were analyzed by Illumina Human Whole Genome microarrays. Probe intensities were corrected, normalized, and summarized by the Lumi package of Bioconductor (Du et al., 2008). Differentially expressed genes were identified by the LIMMA package of Bioconductor (Wettenhall and Smyth, 2004). Gene set enrichment analysis (GSEA) was performed using the Bioconductor GOstats package (Falcon and Gentleman, 2007).

DUX4-fl: full-length DUX4 protein (SEQ ID NO:110), expressed from lentiviral or pCS2 vectors or in vitro translated
NFKBIA expression fc (Refseq NM_020529.1, cultured human skeletal muscle): −3.004
fc of RCN3 (expression array) (Refseq NM_020650.2): −1.062
PELI1 expression fc (Refseq NM_020651.2): 2.886
fc of FAM62B (expression array) (Refseq NM_020728.1): −0.7938
HECW2 fc (Refseq NM_020760.1): −1.167
ZNF319 fc (Refseq NM_020807.1): −1.119
OSBPL8 expression fc (Refseq NM_020841.4): 1.95
USP29 expression fc (Refseq NM_020903.2): 2.597
fc of RNF213 (expression array) (Refseq NM_020914.3): −1.024
fc of FAM160B1 (expression array) (Refseq NM_020940.3): −1.051
fc of IGDCC4 (expression array) (Refseq NM_020962.1): −1.054
RFPL1 expression fc (Refseq NM_021026.2): 6.264
IFITM3 expression fc (Refseq NM_021034.2, cultured human skeletal muscle): −1.949
NEFH expression fc (Refseq NM_021076.2): 1.936
fc of SLC8A1 (expression array) (Refseq NM_021097.2): −0.4596
PSAT1 fc (Refseq NM_021154.3): −1.076
RAB40C fc (Refseq NM_021168.2): −1.168
fc of SLC30A1 (expression array) (Refseq NM_021194.2): −0.3462
CTDSP1 fc (Refseq NM_021198.1): −1.122
ARHGAP22 fc (Refseq NM_021226.2): −1.084
fc of NTN4 (expression array) (Refseq NM_021229.3): −1.022
PELI2 expression fc (Refseq NM_021255.2): 2.782
PLEKHA2 fc (Refseq NM_021623.1): −1.077
AVPI1 expression fc (Refseq NM_021732.1): 2.022
fc of FAM3A (expression array) (Refseq NM_021806.1): −1.022
APOBEC3G expression fc (Refseq NM_021822.1, cultured human skeletal muscle): −2.012
fc of C14orf93 (expression array) (Refseq NM_021944.1): −1.063
HSPA2 expression fc (Refseq NM_021979.3): 3.67
CXCL16 fc (Refseq NM_022059.1): −1.09
NOD2 fc (Refseq NM_022162.1): −1.135
IFIH1 expression fc (Refseq NM_022168.2, cultured human skeletal muscle): −3.705
HS1BP3 fc (Refseq NM_022460.3): −1.078
C14orf173 fc (Refseq NM_022489.2): −1.167
FEZ1 fc (Refseq NM_022549.2): −1.073
HIPK2 fc (Refseq NM_022740.2): −1.173
fc of MOSC1 (expression array) (Refseq NM_022746.2): −1.034
PARP12 expression fc (Refseq NM_022750.2, cultured human skeletal muscle): −3.165
CRTC3 fc (Refseq NM_022769.3): −1.138
FAM129B fc (Refseq NM_022833.2): −1.126
IFI6 expression fc (Refseq NM_022872.2, cultured human skeletal muscle): −4.24
FGFR3 expression fc (Refseq NM_022965.1): 3.112
PRAMEF1 expression fc (Refseq NM_023013.1): 8.072
PRAMEF2 expression fc (Refseq NM_023014.1): 6.439
C8orf33 expression fc (Refseq NM_023080.1): 2.251
GRAMD3 fc (Refseq NM_023927.1): −1.115
NEUROG2 expression fc (Refseq NM_024019.2): 3.857
NUP37 fc (Refseq NM_024057.2): −1.075
PRRG4 expression fc (Refseq NM_024081.4): 2.369
TRIM48 expression fc (Refseq NM_024114.2): 7.88
DHX58 expression fc (Refseq NM_024119.2, cultured human skeletal muscle): −2.836
PRKAG2 fc (Refseq NM_024429.1): −1.099
fc of FAM65A (expression array) (Refseq NM_024519.2): −1.053
fc of ZC3HAV1 (expression array) (Refseq NM_024625.3): −0.8233
YRDC expression fc (Refseq NM_024640.3): 2.601
NPEPL1 fc (Refseq NM_024663.3): −1.113
SNIP1 expression fc (Refseq NM_024700.2): 2.104
fc of FAM57A (expression array) (Refseq NM_024792.1): −1.045
C13orf34 expression fc (Refseq NM_024808.2): 2.492
fc of NUDT18 (expression array) (Refseq NM_024815.3): −1.034
fc of ZNF672 (expression array) (Refseq NM_024836.1): −1.034
C14orf159 expression fc (Refseq NM_024952.5, cultured human skeletal muscle): −2.07
NRSN2 fc (Refseq NM_024958.1): −1.091
SLC24A6 fc (Refseq NM_024959.2): −1.099
CSRNP3 expression fc (Refseq NM_024969.2): 2.496
fc of ULBP1 (expression array) (Refseq NM_025218.2): −1.025
C6orf148 expression fc (Refseq NM_030568.2): 6.759
KLHL15 expression fc (Refseq NM_030624.1): 3.373
fc of ZBP1 (expression array) (Refseq NM_030776.1): −0.3281
SLC2A10 fc (Refseq NM_030777.3): −1.119
SYNC1 fc (Refseq NM_030786.1): −1.127
PDRG1 expression fc (Refseq NM_030815.2): 1.783
UNC93B1 expression fc (Refseq NM_030930.2, cultured human skeletal muscle): −1.961
PPP1R14C expression fc (Refseq NM_030949.2): 3.049
TRIM56 fc (Refseq NM_030961.1): −1.14
fc of RNF146 (expression array) (Refseq NM_030963.2): −1.02
ADPGK expression fc (Refseq NM_031284.3): 2.233
C11orf68 fc (Refseq NM_031450.2): −1.142
FAM107B expression fc (Refseq NM_031453.2): 2.529
PARP9 expression fc (Refseq NM_031458.1, cultured human skeletal muscle): −2.098
IFI27L2 fc (Refseq NM_032036.2): −1.137
SFRS2B expression fc (Refseq NM_032102.2): 4.215

— US20140242093A1, “METHODS AND COMPOSITIONS FOR MODULATING THE INNATE IMMUNE RESPONSE AND/OR MYOGENESIS IN A MAMMALIAN SUBJECT” (FRED HUTCHINSON CANCER RESEARCH CENTER, priority 2011, published 2014)
